Experimental data published in patent US20260317304A1, “TEAD INHIBITORS AND METHODS OF USE” (Sporos BioDiscovery, Inc., priority 2022, published 2026).

Experiments:
TEAD isoforms 1-4 = test: TEAD thermal shift assay (TSA), outcome in words; type: binding, human
Text: Thermal shift assay (TSA) is a biophysical method to evaluate stability of proteins with change in temperature. The assay measures thermal denaturation temperature in varying conditions such as different drug concentration. For this example, fluorogenic dye was used that bind to unfolded proteins. SYPRO Orange binds non-specifically to hydrophobic surfaces, and water strongly quenches its fluorescence. When the protein unfolds, the exposed hydrophobic surfaces bind the dye, resulting in an increase in fluorescence by excluding water. Detergent micelles also bind the dye and increase background noise dramatically. Binding of small molecules to proteins leads to a stabilization against to thermal denaturation with the degree of thermal stabilization proportional to the strength of binding.
The study described in this example investigated the change in melting temperature (ΔTm) of TEAD isoforms 1-4 when treated with TEAD inhibitors.
Tris-HCL was dissolved in 5 mL of Cell culture grade water and allowed to dissolve completely. The pH was adjusted to 8 using NaOH. Additional assay buffer components were added in the order listed above. The buffer was mixed slowly.
Assay buffer was prepared according to the procedures outlined above and dispensed into test wells. Spyro orange was added to a concentration of 5× in the assay buffer, followed by test compound stock solution which was added to a concentration of 10 μM or 30 μM in the assay buffer.
The melt cycle was performed in Bio-RAD PCR instrument from 20-95° C. with ramp rate of 1° C./min.

[1] = tested on: NCI-H226 lung tumor model; test: Mouse xenograft NCI-H226 tumors; type: in vivo, NOD SCID mice
Text: This study evaluated the in vivo anti-tumor efficacy of test compounds in NOD SCID mice for treatment of NCI-H226 lung tumor model.
• Species: Mus Musculus • Strain: NOD SCID • Age: 6-8 weeks • Sex: female • Body weight: 18-22 g • Number of animals inoculated with tumor: 69 mice • Number of animals enrolled in the treatment: 40 mice • Number of unenrolled animals: 29 mice • Animal supplier: Beijing Vital River Biotechnology Experimental Animal Co. Ltd Certification number: 20221110Abzz0619000681
The NCI-H226 tumor cells were maintained in vitro in RPMI 1640 medium supplemented with 10% Fetal bovine serum and 1% Antibiotic-Antimycotic at 37° C. in an atmosphere of 5% CO2 in air. The tumor cells were routinely subcultured twice weekly by trypsin-EDTA. The cells growing in an exponential growth phase were harvested and counted for tumor inoculation.
Each mouse was inoculated subcutaneously at the right flank with NCI-H226 tumor cells (10×10^6+50% matrigel/0.2 mL) for tumor development. Animals were marked with earrings with unique 6 significant figure number for identification. The treatments were started when the average tumor volume reached an average size of 154 mm^3.
The major endpoint was to determine if the tumor growth could be delayed or mice could be cured. Tumor volume was measured twice a week in two dimensions using a caliper, and the volume was expressed in mm^3 using the formula: V=0.5 a×b^2 where a and b are the long and short diameters of the tumor, respectively. The tumor size was then used for calculations of T/C value. The TGI value (in percent) or the T/C value (in percent) is an indication of antitumor effectiveness; T and C are the mean tumor volumes or tumor weights of the treated and control groups, respectively, on a given day.
TGI was calculated for each group using the formula: TGI (%)=[1−(Ti−T0)/(Vi−V0)]×100; Ti is the average tumor volume of a treatment group on a given day, T0 is the average tumor volume of the treatment group on the day of treatment start, Vi is the average tumor volume of the vehicle control group on the same day with T1, and V0 is the average tumor volume of the vehicle group on the day of treatment start.
Relative T/C (%)=TRTV/CRTV×100 (RTV (%)=Vt/V0×100, Vt is the average tumor volume on a given day, V0 is the average tumor volume on the first day of treatment. TRTV is the RTV of a treatment group, and the CRTV is the RTV of the vehicle control group.)
Tumor weight was measured at the study termination. The Tweight/Cweight value (in percent) was calculated according to the formula: Tweight/Cweight (%)=TWtreatment/TWvehicle×100, where T and C are the mean tumor weights of the treatment and control groups respectively
Summary statistics, including mean and the standard error of the mean (SEM), were provided for the tumor volume of each group at each time point.
Statistical analysis of difference in tumor volume among the groups was conducted on the data obtained at the end of the study.
One-tailed T test was performed to compare tumor volumes between two groups. All data were analyzed using GraphPad Prism 6.0. p<0.05 is considered to be statistically significant.
The antitumor effectiveness of the study was analyzed on PG-D28 when vehicle group reached 472 mm^3.

Question: `Cn1cnc(-c2cc([C@@]3(C)CCNC3=O)ccc2Nc2ccc(C(F)(F)F)cc2)c1` (single isomer, unassigned) [Compound 5, 3-methyl-3-(3-(1-methyl-1H-imidazol-4-yl)-4-((4-(trifluoromethyl)phenyl)amino)phenyl)pyrrolidin-2-one] was tested. Which “thermal shift / TEAD binding (in words)” value (TEAD isoforms 1-4) did it give?
Answer: Its value is “strong TEAD1 and TEAD4 binding”.

Question: And the “Tumor size (mean ± SEM)” value ([1]; day 0, 5 mg/kg, PO BID)?
Answer: Its value is 154 ± 13 mm^3.

Question: And the “Tumor size (mean ± SEM)” value ([1]; day 0, 15 mg/kg, PO BID)?
Answer: The value was 154 ± 15 mm^3.

Question: What about the “Tumor size (mean ± SEM)” value ([1]; day 0, 15 mg/kg, PO QD) of the same compound?
Answer: Its value is 154 ± 15 mm^3.

Question: What about the “Tumor size (mean ± SEM)” value ([1]; day 4, 5 mg/kg, PO BID) of the same compound?
Answer: Its value is 140 ± 10 mm^3.

Question: And the “Tumor size (mean ± SEM)” value ([1]; day 4, 15 mg/kg, PO BID)?
Answer: The value was 127 ± 14 mm^3.

Question: What about the “Tumor size (mean ± SEM)” value ([1]; day 4, 15 mg/kg, PO QD) of the same compound?
Answer: Its value is 153 ± 11 mm^3.

Question: What about the “Tumor size (mean ± SEM)” value ([1]; day 7, 5 mg/kg, PO BID) of the same compound?
Answer: Its value is 129 ± 5 mm^3.

Question: And the “Tumor size (mean ± SEM)” value ([1]; day 7, 15 mg/kg, PO BID)?
Answer: Its value is 115 ± 12 mm^3.

Question: What about the “Tumor size (mean ± SEM)” value ([1]; day 7, 15 mg/kg, PO QD) of the same compound?
Answer: Its value is 149 ± 11 mm^3.

Question: What about the “Tumor size (mean ± SEM)” value ([1]; day 10, 5 mg/kg, PO BID) of the same compound?
Answer: The value was 124 ± 6 mm^3.

Question: And the “Tumor size (mean ± SEM)” value ([1]; day 10, 15 mg/kg, PO BID)?
Answer: The value was 110 ± 10 mm^3.

Question: What about the “Tumor size (mean ± SEM)” value ([1]; day 10, 15 mg/kg, PO QD) of the same compound?
Answer: Its value is 148 ± 12 mm^3.

Question: And the “Tumor size (mean ± SEM)” value ([1]; day 13, 5 mg/kg, PO BID)?
Answer: The value was 82 ± 8 mm^3.

Question: And the “Tumor size (mean ± SEM)” value ([1]; day 13, 15 mg/kg, PO BID)?
Answer: The value was 84 ± 8 mm^3.

Question: What about the “Tumor size (mean ± SEM)” value ([1]; day 13, 15 mg/kg, PO QD) of the same compound?
Answer: Its value is 116 ± 26 mm^3.

Question: And the “Tumor size (mean ± SEM)” value ([1]; day 17, 5 mg/kg, PO BID)?
Answer: The value was 77 ± 7 mm^3.

Question: And the “Tumor size (mean ± SEM)” value ([1]; day 17, 15 mg/kg, PO BID)?
Answer: Its value is 62 ± 6 mm^3.

Question: What about the “Tumor size (mean ± SEM)” value ([1]; day 17, 15 mg/kg, PO QD) of the same compound?
Answer: The value was 94 ± 15 mm^3.

Question: What about the “Tumor size (mean ± SEM)” value ([1]; day 20, 5 mg/kg, PO BID) of the same compound?
Answer: Its value is 73 ± 6 mm^3.

Question: What about the “Tumor size (mean ± SEM)” value ([1]; day 20, 15 mg/kg, PO BID) of the same compound?
Answer: The value was 63 ± 7 mm^3.

Question: And the “Tumor size (mean ± SEM)” value ([1]; day 20, 15 mg/kg, PO QD)?
Answer: The value was 95 ± 16 mm^3.

Question: And the “Tumor size (mean ± SEM)” value ([1]; day 24, 5 mg/kg, PO BID)?
Answer: Its value is 55 ± 4 mm^3.

Question: And the “Tumor size (mean ± SEM)” value ([1]; day 24, 15 mg/kg, PO BID)?
Answer: The value was 49 ± 4 mm^3.

Question: And the “Tumor size (mean ± SEM)” value ([1]; day 24, 15 mg/kg, PO QD)?
Answer: Its value is 85 ± 8 mm^3.

Question: And the T/C ([1]; day 28, 5 mg/kg, PO BID)?
Answer: Its T/C is 11.2%.

Question: What about the TGI ([1]; day 28, 5 mg/kg, PO BID) of the same compound?
Answer: The TGI was 131.3%.

Question: What about the “Tumor size (mean ± SEM)” value ([1]; day 28, 5 mg/kg, PO BID) of the same compound?
Answer: The value was 53 ± 5 mm^3.

Question: And the “Tumor Volume (mean ± SEM)” value ([1]; day 28, 5 mg/kg, PO BID (Table 20))?
Answer: The value was 53 ± 5 mm^3.

Question: And the T/C ([1]; day 28, 15 mg/kg, PO BID)?
Answer: Its T/C is 9.0%.

Question: What about the TGI ([1]; day 28, 15 mg/kg, PO BID) of the same compound?
Answer: The TGI was 134.2%.

Question: And the “Tumor size (mean ± SEM)” value ([1]; day 28, 15 mg/kg, PO BID)?
Answer: The value was 43 ± 6 mm^3.

Question: What about the “Tumor Volume (mean ± SEM)” value ([1]; day 28, 15 mg/kg, PO BID (Table 20)) of the same compound?
Answer: The value was 43 ± 6 mm^3.

Question: And the T/C ([1]; day 28, 15 mg/kg, PO QD)?
Answer: Its T/C is 17.0%.

Question: What about the TGI ([1]; day 28, 15 mg/kg, PO QD) of the same compound?
Answer: The TGI was 122.3%.

Question: And the “Tumor size (mean ± SEM)” value ([1]; day 28, 15 mg/kg, PO QD)?
Answer: The value was 82 ± 12 mm^3.

Question: And the “Tumor Volume (mean ± SEM)” value ([1]; day 28, 15 mg/kg, PO QD (Table 20))?
Answer: The value was 82 ± 12 mm^3.
